Where a SMILES comes first, the peptide text is derived from it. [ ]: non-standard residue; d: D form. pGlu = O=C1CC[C@@H](C(=O)O)N1
How the values were obtained:
[1] = system: elimination of phenol red from the respiratory fluid; assay: Mucosecretolytic activity (phenol red test in the mouse); assay type: in vivo; conditions: 100 mg/kg os; for Mean secretion (total μg) (mean ± S.E.): controls 2.73 ± 0.18, **p <0.01 Dunnett's "t" test
[2] = In vitro antioxidant activity (DPPH test); assay type: biochemical
Source text: The antioxidant (radical-scavenger) activity was studied by means of the DPPH in vitro test and with the paracetamol in vivo test.

[3] = system: paracetamol acute toxicity; assay: In vivo antioxidant activity (paracetamol test); parameters: species or system Male Crl: CD-1 (ICR) BR mice; conditions: 100 mg/kg os 30 minutes before and 5 hours after paracetamol 1000 mg/kg i.p., 6 days; for Mortality (%): controls 90%
Description: The in vivo antioxidant (radical scavenger) activity was evidenced by means of the protection test against paracetamol acute toxicity. Male Crl: CD-1 (ICR) BR mice, weighing 25-30 g, were treated intraperitoneally with 1000 mg/kg (1 ml/kg) of paracetamol dissolved in 20% DMF in water immediately before the administration.
In vivo antioxidant activity (paracetamol test)

[4] = known from EP-A-332,946; in words; cited from earlier work

Compound	Variat. (%) of mean secretion vs controls [1]	Mean secretion (total μg) (mean ± S.E.) [1] [µg]	Variat. (%) of absorbancies ([2]; 5.10^-5 M, 50 µM) [%]	Variat. (%) of absorbancies ([2]; 10^-4 M, 100 µM) [%]	Variat. (%) of absorbancies ([2]; 10^-5 M, 10 µM) [%]	Mortality, Variat. vs controls (%) [3] [%]	Mortality (%) [3] [%]	anticataractogenic activity [4]
COC(=O)[C@H](CS)NC(=O)[C@@H]1CCC(=O)N1 [Ic, N-(5-oxo-L-prolyl)-L-cysteine methyl ester] ([pGlu]-Cys-OMe)	+143.2%	6.64 ± 1.00	-49.1	-82.7	-10.4	45.4	50	
COC(=O)[C@H](CS)NC(=O)[C@@H]1CCC(=S)N1 [Id, N-(5-thioxo-L-prolyl)-L-cysteine methyl ester]	+97.4%	5.39 ± 0.59	-51.8	-79.1	-14.3	45.4	50	
O=C(O)[C@H](CS)NC(=O)[C@@H]1CCC(=S)N1 [Ie, N-(5-thioxo-L-prolyl)-L-cysteine]	+112.8%	5.81 ± 0.62	-51.8	-83.1	-14.3	66.7	30	
O=C1O[C@H]([C@@H](O)CO)C(O)=C1O [L-ascorbic acid]			-49.5	-86.0	-17.6			
N[C@@H](CS)C(=O)O [L-cysteine]			-56.5	-83.7	-10.9			
O=C1CC[C@@H](C(=O)N[C@@H](CS)C(=O)O)N1 [N-(5-oxo-L-prolyl)-L-cysteine] ([pGlu]-Cys-OH)	+92.7%	5.26 ± 0.25	-49.6	-88.1	-29.6	66.7	30	known to have anticataractogenic activity
CC(=O)N[C@@H](CS)C(=O)O [N-acetyl-L-cysteine]	+61.9%	4.42 ± 0.83	-47.9	-86.3	-10.4	45.4	50	

Source: patent US5254579A, “N-(5-thioxo-L-prolyl)-L-cysteine, derivatives thereof, processes for the preparation thereof and pharmaceutical compositions containing them” (Poli Industria Chimica S.p.A., priority 1991, dated 1993)
